Assay results: patent US11530226B2, “Azepane inhibitors of menin-MLL interaction” (Janssen Pharmaceutica NV, priority 2016, dated 2022)

Key:
[1] = biological target: T1, terbium chelate-labeled menin / FITC-MBM1 peptide (Menin/MLL) (Homo sapiens, UniProt O00255, T541A); experiment: Menin/MLL homogenous time-resolved fluorescence (HTRF) assay; format: binding; settings: read-out: (2) Menin HTRF assay (IC50 (nM))
T1 construct: Menin (a. a. l-610-6×his tag) was labeled with terbium cryptate as follows
T1 sequence (O00255 with tags, fused parts or gaps T541A): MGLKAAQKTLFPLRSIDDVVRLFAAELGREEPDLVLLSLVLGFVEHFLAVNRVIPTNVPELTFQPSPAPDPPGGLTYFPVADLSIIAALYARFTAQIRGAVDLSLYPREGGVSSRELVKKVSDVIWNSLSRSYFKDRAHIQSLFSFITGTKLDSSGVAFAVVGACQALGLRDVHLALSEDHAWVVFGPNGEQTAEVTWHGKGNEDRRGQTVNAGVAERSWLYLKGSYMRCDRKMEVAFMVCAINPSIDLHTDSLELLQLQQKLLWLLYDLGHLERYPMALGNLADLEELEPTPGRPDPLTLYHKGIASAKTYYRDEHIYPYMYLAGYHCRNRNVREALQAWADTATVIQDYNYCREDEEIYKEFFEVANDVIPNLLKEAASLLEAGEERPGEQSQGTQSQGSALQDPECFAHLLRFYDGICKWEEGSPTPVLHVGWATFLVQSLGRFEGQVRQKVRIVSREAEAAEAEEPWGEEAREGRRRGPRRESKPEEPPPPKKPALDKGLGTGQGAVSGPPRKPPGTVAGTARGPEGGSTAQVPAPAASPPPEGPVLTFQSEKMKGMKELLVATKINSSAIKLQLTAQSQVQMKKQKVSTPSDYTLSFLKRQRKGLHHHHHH
How it was run: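 Terbium cryptate-labeled menin (aa 1-610, 6×His), 100 pM, preincubated 5 min with compound, then 75 nM FITC-MBM1 peptide added for 15 min at ambient temperature. Buffer: 40 mM Tris pH 7.5, 50 mM NaCl, 1 mM DTT, 0.05% Pluronic F-127, 0.5% DMSO. HTRF 520/490 ratio; 11-point threefold titration from 25 μM, IC50 from % inhibition curve.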

[2] = biological target: T2, menin / FITC-MBM1 peptide (Menin/MLL) (Homo sapiens, UniProt O00255); experiment: Menin/MLL fluorescence polarization (FP) assay; format: binding; settings: read-out: (1) Menin FP assay (IC50 (μM))
T2 sequence (O00255 1-610): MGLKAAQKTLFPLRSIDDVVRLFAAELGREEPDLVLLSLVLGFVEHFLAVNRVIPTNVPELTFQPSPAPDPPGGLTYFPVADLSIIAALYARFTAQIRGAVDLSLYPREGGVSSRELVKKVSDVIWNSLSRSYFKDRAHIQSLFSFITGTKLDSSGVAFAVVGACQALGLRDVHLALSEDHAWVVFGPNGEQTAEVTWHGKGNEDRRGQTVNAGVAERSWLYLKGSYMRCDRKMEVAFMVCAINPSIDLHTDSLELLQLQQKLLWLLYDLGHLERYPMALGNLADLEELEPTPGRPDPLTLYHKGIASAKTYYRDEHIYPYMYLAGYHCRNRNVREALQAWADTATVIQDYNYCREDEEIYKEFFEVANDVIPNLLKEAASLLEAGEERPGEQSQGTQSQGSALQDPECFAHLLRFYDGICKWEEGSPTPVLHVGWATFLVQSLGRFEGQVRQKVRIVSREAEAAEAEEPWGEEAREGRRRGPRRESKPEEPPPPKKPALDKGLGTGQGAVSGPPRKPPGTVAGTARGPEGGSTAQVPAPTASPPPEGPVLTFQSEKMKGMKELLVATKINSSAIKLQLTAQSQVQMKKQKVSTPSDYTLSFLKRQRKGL
Method: Pharmacological Part 1) Menin/MLL Fluorescence Polarization Assay
To a non-surface binding, black 384-well microtiter plate was added 50 nL 160× test compound in DMSO and 4 μL 2× menin in assay buffer (40 mM TrisHCl, pH 7.5, 50 mM NaCl, 1 mM DTT and 0.001% Tween 20). After incubation of test compound and menin for 10 min at ambient temperature, 4 μL 2×FITC-MBM1 peptide (FITC-β-alanine-SARWRPPARPGT-NH2) in assay buffer was added, the microtiter plate centrifuged at 1000 rpm for 1 min and the assay mixtures incubated for 15 min at ambient temperature. The relative amount of menin -FITC-MBM1 complex present in an assay mixture is determined by measuring the fluorescence polarization (FP) of the FITC label with a BMG Pherastar plate reader (ex. 485 nm/em. 520 nm) at ambient temperature. The final concentrations of reagents in the binding assay are 100 nM menin, 5 nM FITC-MBM1 peptide and 0.625%>DMSO in assay buffer. Dose-response titrations of test compounds are conducted using an 11 point, three-fold serial dilution scheme, starting at 31 μM.
Compound potencies were determined by first calculating % inhibition at each compound concentration according to equation 1: % inhibition=((HC−LC)−(FPcompound−LC))/(HC−LC))*100 (Eqn 1)
Where LC and HC are the FP values of the assay in the presence or absence of a saturating concentration of a compound that competes with FITC-MBM1 for binding to menin, and FP^compound is the measured FP value in the presence of the test compound. HC and LC FP values represent an average of at least 16 replicates per plate.
Where Bottom and Top are the lower and upper asymptotes of the dose-response curve, respectively, IC50 is the concentration of compound that yields 50% inhibition of signal and h is the Hill coefficient.

IC50 [1] [nM]	IC50 [2] [µM]	Structure (SMILES)
9530	6.36	FC(F)CN[C@@H]1CCCN(c2ncnc3sc(CC(F)(F)F)cc23)CC1 [Compound 5]
8290	6.15	FC(F)CN[C@@H]1CCCN(c2ncnc3sc(CC(F)(F)F)cc23)CC1 [Compound 5a]
